# Measurements from EP1724268A1, “COMPOUND HAVING TGF-BETA INHIBITORY ACTIVITY AND PHARMACEUTICAL COMPOSITION CONTAINING SAME” (KIRIN BEER KABUSHIKI KAISHA, priority 2004, dated 2005).
# Where two headings read alike, the source gives them in different places.
# Test system: TGFβ signal
# Experiment: TGFβ signal inhibitory activity, (SBE)4-Luc reporter in A549 cells (Test Examples 1A and 1B)
# Assay type: cell-based, human
# Conditions: Homo sapiens, A549, read-out: TGFβ inhibition rate, %; for inhibition at 1 µM: test compound 1 µM
# Summary of the method: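 Stable A549 line carrying (SBE)4-Luc Smad3-binding reporter treated with compound plus TGFβ-1 (2 ng/ml) for 4 hr; luciferase read by chemiluminescence. Percent inhibition relative to TGFβ-only and untreated cells, tested at 3 µM and 10 µM, some also at 1 µM.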
# [1] = test compound 3 µM, Reference Examples, Table 1B
# [2] = test compound 10 µM, Reference Examples, Table 1B
# [3] = 3 µM, compounds of Reference Examples (Test Example 1B)
# [4] = 10 µM, compounds of Reference Examples (Test Example 1B)
# [5] = test compound 3 µM, TGFβ-1 2 ng/ml, 4 hr, Table 1A
# [6] = test compound 10 µM, TGFβ-1 2 ng/ml, 4 hr, Table 1A
SMILES,inhibition at 3 µM [3] [%],inhibition at 10 µM [4] [%],inhibition at 3 µM [5] [%],inhibition at 10 µM [6] [%],further results
COc1ccc(Oc2ncnc3cc(OC)c(OC)cc23)c(C(C)=O)c1 [r162],,,,,inhibition at 3 µM [1]: 5%; inhibition at 10 µM [2]: 54%
CCOC(=O)c1ccc(Cl)cc1Oc1ccnc2cc(OC)c(OC)cc12 [Compound r81],,,,,inhibition at 3 µM [1]: 91%; inhibition at 10 µM [2]: 100%
COc1cc2nccc(Oc3ccc(C)nc3/C=C/c3ccccc3)c2cc1OC [r216],22,73,,,
COc1cc2nccc(Oc3ccc4ccccc4c3)c2cc1OC [Compound r17],,,,,inhibition at 3 µM [1]: 15%; inhibition at 10 µM [2]: 80%
COc1cc2nccc(Oc3ccc(Cl)cc3C(=O)Nc3ccccc3)c2cc1OC [Compound r105],,,,,inhibition at 3 µM [1]: 17%; inhibition at 10 µM [2]: 88%
"COc1cc2nccc(Oc3cc4cccnc4nc3-c3ccccc3)c2cc1Br [Compound 132, 3-(6-Bromo-7-methoxy-quinolin-4-yloxy)-2-phenyl-[1,8]naphthyridine]",,,98,100,
"COc1cc2nccc(Oc3cc4ccncc4cc3C)c2cc1OC [Compound r300, 6,7-Dimethoxy-4-(7-methyl-isoquinolin-6-yloxy)-quinoline]",9,63,,,
COc1cc2c(Oc3cc(C)c(C)nc3-c3ccc(C)cn3)ccnc2cc1OCCO [Compound r459],98,,,,
CCCCCCCCOc1ccc(C(=O)c2ccccc2)c(Oc2ccnc3cc(OC)c(OC)cc23)c1 [Compound r66],,,,,inhibition at 3 µM [1]: 22%; inhibition at 10 µM [2]: 86%
"COc1cc2nccc(Oc3cc4cccnc4cc3OC)c2cc1OC [Compound r297, 6,7-Dimethoxy-4-(7-methoxy-quinolin-6-yloxy)-quinoline]",61,94,,,
"COc1cc2nccc(Oc3cc(C)c(C)nc3-c3ccccn3)c2cc1Br [Compound 133, 3-(6-Bromo-7-methoxy-quinolin-4-yloxy)-5,6-dimethyl-[2,2']bip yridine]",,,99,100,
CCOC(=O)C(Oc1cc2nccc(Oc3cc4ccccc4nc3C)c2cc1OC)C(=O)OCC [Compound r373],48,86,,,
"Cc1cc(Oc2ccnc3cc(-c4cccc(N)c4)ccc23)c(-c2ccccn2)nc1C [Compound 21, 3-[4-(5,6-Dimethyl-[2,2']bipyridin-3-yloxy)-quinolin-7-yl]-phenylamine]",,,99,100,
COc1cc2nccc(Oc3ccc(C)nc3-c3ccc(Oc4ccccc4)cc3)c2cc1OC [Compound r250],34,81,,,
COc1cc2nccc(Oc3ccc(C)cc3C(=O)C3CCCCC3)c2cc1OC [Compound r59],,,,,inhibition at 3 µM [1]: 65%; inhibition at 10 µM [2]: 99%
COc1cc2nccc(Oc3cc(C)c(C)nc3-c3cccc(C)n3)c2cc1OC [Compound r271],94,100,,,
COc1cc2c(Oc3ccc(C)cc3C(=O)c3ccccc3)ccnc2cc1OCCCCN1CCNCC1 [Compound r147],,,,,inhibition at 3 µM [1]: 98%; inhibition at 10 µM [2]: 100%
COc1cc2nccc(Oc3c(C)nc4ccccc4c3Br)c2cc1OC [r291],14,78,,,
CCOC(=O)COc1cc2nccc(Oc3cc4ccccc4nc3C)c2cc1OC [Compound r372],14,93,,,
COc1cc2nccc(Oc3ccc(C)nc3-c3ccccc3C)c2cc1OC [Compound r224],69,96,,,
COc1cc2c(Oc3ccc(C)nc3-c3nccs3)ccnc2cc1OCC(CO)CO [Compound r330],100,100,,,
"Cc1ccc(Oc2ccnc3ccc(OCC4CCC4)cc23)c(-c2ncccn2)n1 [Compound 213, 6-Cyclobutylmethoxy-4-(6-methyl-2-pyrimidin-2-yl-pyridin-3-yloxy)-quinoline]",,,98,,
"COC(=O)c1ccc2c(Oc3cc4cccnc4nc3-c3ccccc3)ccnc2c1 [Compound 113, Methyl 4-(2-Phenyl-[1,8]naphthyridin-3-yloxy)-quinoline-7-carboxarlate]",,,95,100,
"Cc1ccc(Oc2ccnc3ccc(OCCN4CCOCC4)cc23)c(-c2ncccn2)n1 [Compound 209, 4-(6-Methyl-2-pyrimidin-2-yl-pyridin-3-yloxy)-6-(2-morpholin-4--yl-ethoxy)-quinoline]",,,54,,
"Cc1cc(Oc2ccnc3cc(C(F)(F)F)ccc23)c(-c2ccccn2)nc1C [Compound 15, 5,6-Dimethyl-3-(7-trifluoromethyl-quinolin-4-yloxy)-[2,2']bipyridine]",,,99,100,

SMILES,inhibition at 3 µM [3] [%],inhibition at 10 µM [4] [%],inhibition at 3 µM [5] [%],inhibition at 10 µM [6] [%],further results
COc1cc2c(Oc3cc4cccnc4nc3C)ccnc2cc1OCC1CO1 (centres unmarked) [Compound r401],24,76,,,
COc1cc2c(Oc3ccc(C)nc3-c3nccs3)ccnc2cc1O [Compound r329],100,100,,,
COc1cc2c(Oc3cc4ccccc4nc3C(C)=O)ccnc2cc1OCC(CO)CO [Compound r396],96,,,,
COc1cc2nccc(Oc3ccc(C)nc3-c3ccc(F)cc3)c2cc1OC [Compound r251],84,100,,,
"COc1cc2nccc(Oc3cc4cccnc4nc3-c3ccc(Br)cc3)c2cc1OC [Compound 85, 2-(4-Bromo-phenyl)-3'-(6,7-dimethoxy-quinolin-4-yloxy)-[1,8]naphthyridine]",,,48,97,
COc1cc2c(Oc3cc(C)c(C)nc3-c3ccccn3)ccnc2cc1OCCO [Compound r339],100,,,,
"Cc1cc(Oc2ccnc3ccc(-c4ccc(O)cc4)cc23)c(-c2ccccn2)nc1C [Compound 12, 4-[4-(5,6-Dimethyl-[2,2']bipyridin-3-yloxy)-quinolin-6-yl]-phenol]",,,100,100,
"Cc1cc(Oc2ccnc3ccc(-c4cn[nH]c4)cc23)c(-c2ccccn2)nc1C [Compound 169, 5,6-Dimethyl-3-[6-(1H-pyrazol-4-yl)-quinolin-4-yloxy]-[2,2']bipyridine]",,,100,100,
"c1ccc(-c2cc3nccc(Oc4cc5cccnc5nc4-c4ccccc4)c3s2)cc1 [Compound 72, 2-Phenyl-3-(2-phenyl-thieno[3,2-b]pyridin-7-yloxy)-[1,8]naphthyridine]",,,99,,"inhibition at 1 µM (TGFβ-1 2 ng/ml, 4 hr, Table 1A): 81%"
COc1cc2c(Oc3cc4ccccc4nc3C)ccnc2cc1CCCO [Compound r411],50,85,,,
"COc1ccc2nccc(Oc3cc(C)c(C)nc3-c3ccccn3)c2n1 [Compound 121, 8-(5,6-Dimethyl-[2,2']bipyridinyl-3-yloxy)-2-methoxy-[1,5]naphthyridine]",,,98,100,
"Cc1cc(Oc2ncnc3ccc(Br)cc23)c(-c2ccccn2)nc1C [Compound 25, 6-Bromo-4-(5,6-dimethyl-[2,2']bipyridin-3-yloxy)-quinazoline]",,,89,99,
CCOc1cccc(-c2nc(C)ccc2Oc2ccnc3cc(OC)c(OC)cc23)c1 [Compound r239],83,100,,,
"COc1cc2ncnc(Oc3cc(C)c(C)nc3-c3cccnc3)c2cc1OC [Compound 48, 4-(5,6-Dimethyl-[2,3']bipyridinyl-3-yloxy)-6,7-dimethoxy-quinazoline]",,,64,,"inhibition at 1 µM (TGFβ-1 2 ng/ml, 4 hr, Table 1A): 28%"
CCOC(=O)/C=C/c1cc2nccc(Oc3cc4ccccc4nc3C)c2cc1OC [Compound r413],31,76,,,
"c1ccc(-c2nc3ncccc3cc2Oc2ncnc3sccc23)cc1 [Compound 76, 2-Phenyl-3-(thieno[2,3-d]pyrimidin-4-yloxy)-[1,8]naphthyridine]",,,44,83,
COc1cc2nccc(Oc3ccccc3C(C)=O)c2cc1OC [Compound r29],,,,,inhibition at 3 µM [1]: 0%; inhibition at 10 µM [2]: 67%
COc1cc2nccc(Oc3ccc(C)nc3I)c2cc1OC [r116],,,,,inhibition at 3 µM [1]: 99%; inhibition at 10 µM [2]: 100%
"Cc1cc(Oc2ccnc3cc(OCc4ccccc4)ccc23)c(-c2ccccn2)nc1C [Compound 137, 3-(7-Benzyloxy-quinolin-4-yloxy)-5,6-dimethyl-[2,2']bipyridine]",,,88,100,
"Cc1cc(Oc2ccnc3ccc(-c4ccccn4)cc23)c(-c2ccccn2)nc1C [Compound 174, 5,6-Dimethyl-3-(6-pyridin-2-yl-quinolin-4-yloxy)-[2,2']bipyridine]",,,89,100,
COc1cc2c(Oc3cc(C)c(C)nc3-c3ccccn3)ccnc2cc1OCC(O)CO (centres unmarked) [Compound r342],89,,,,
"c1cnc2nc(-c3csc4ccccc34)c(Oc3ccnc4ccccc34)cc2c1 [Compound 90, 2-Benzo[b]thiophen-3-yl-3-(quinolin-4-yloxy)-[1,8]naphthyridine]",,,22,68,
COc1cc2nccc(Oc3ccc(C)c(C)c3)c2cc1OC [r15],,,,,inhibition at 3 µM [1]: 41%; inhibition at 10 µM [2]: 84%
"Cc1cc(Oc2ccnc3cc(-c4ccsc4)ccc23)c(-c2ccccn2)nc1C [Compound 171, 5,6-Dimethyl-3-(7-thioahen-3-yl-quinolin-4-yloxy)-[2,2']bipyridine]",,,100,100,
